Assay results taken from patent US7943296B2, “Methods of screening using a natriuretic peptide receptor” (Oregon Health & Science University, priority 2005, dated 2011).
Numbering of substitutions follows the chain as printed. Each block holds one molecule with its values, some of them ahead of it.

What was measured:
α-SMA promoter [1] = assay: α-SMA-luciferase reporter in neonatal rat CFs with daily TGF-β1, model of NP resistance; type: cell-based
Description: Neonatal rat CFs were transfected with an α-SMA-luciferase reporter construct driven by TGF-β1 induction of the α-SMA promoter. After 24 hours, cells were treated daily with […] TGF-β1 for up to 4 days. On each successive day, some of the cells were treated with NP (ANP, 100 nM), and luciferase activity measured.

[2] = tested on: cardiac fibroblasts (CFs); assay: bFGF-induced α-SMA protein expression in CFs (Western blot); type: cell-based, rat; details: cells with insertless vector; 10 ng/ml FGF 48 hours; 100 nM ANP
Description: (§1) NP's ability to inhibit growth factor-induced CF differentiation into myofibroblasts was determined as follows. CFs were transiently transfected with insertless pcDNA3 vector or pcDNA3 encoding sNRF^(806-900) (see Example 7). The transfected CFs were then treated for 48 hours with 10 ng/ml basic fibroblast growth factor (FGF; Sigma-Aldrich #F0291) in the presence or absence of 100 nM ANP. Alpha-smooth muscle actin (α-SMA) protein expression, the principal marker of CF differentiation, was assessed by Western blotting and immunofluorescence microscopy. Vimentin staining was used as a loading control because it is expressed equally in fibroblasts and transdifferentiated myofibroblasts.

[3] = tested on: cardiac fibroblasts (CFs); assay: Vimentin localisation in CFs by immunofluorescence microscopy; type: cell-based, rat; details: in the presence of ANP
Description: as §1
For the immunofluorescence microscopy, slide wells were treated as described in Example 7 and incubated with anti-α-SMA and anti-vimentin antibody as well as phalloidin to stain for actin. Briefly, cells were rinsed twice with phosphate-buffered saline (PBS) and fixed with 3.7% formaldehyde in PBS for 10 minutes. After fixation, cells were rinsed with PBS and permeabilized with 0.3% Triton X-100 in PBS for 10 minutes and blocked for 1 hour in 1% horse serum, 0.2% bovine serum albumin in PBS. Cells were then incubated with primary α-SMA antibody (ABCAM ab7817) and primary vimentin antibody (ABCAM ab7783) diluted in blocking solution for 1 hour and washed three times with blocking solution for 5 minutes. […]

α-SMA promoter [4] = assay: TGF-β1-induced α-SMA-luciferase reporter in CFs transfected with pcDNA3-sNRF or control vector; type: cell-based; details: for inhibitory effect on sNRF action (loss of NP inhibition of α-SMA-luciferase): sNRF-transfected CFs, TGF-β1 + ANP, 24 hours
Description: TGF-β1 signaling is required for angiotensin effects in the heart, and NPs oppose TGF-β1 effects in CFs. […] CFs were transiently transfected with the α-SMA-luciferase vector and pcDNA3 control vector or pcDNA3-sNRF, then treated for 24 hours with TGF-β1, ANP, and the angiotensin-converting enzyme inhibitor captopril (CAP) or the angiotensin receptor-1 blocker losartan (LOS).

PKG [5] = biological target: T1, PKG (Homo sapiens, UniProt Q13976); assay: Immunofluorescence of NP-induced PKG membrane translocation in HEK-NPRA cells; type: cell-based; details: fragment expressed in HEK-NPRA cells; ANP 100 nM 15 minutes
T1 construct: endogenous in cells; host or cells: HEK293 stably over-expressing FLAG-NPRA (HEK-NPRA)
T1 sequence (Q13976 1-671): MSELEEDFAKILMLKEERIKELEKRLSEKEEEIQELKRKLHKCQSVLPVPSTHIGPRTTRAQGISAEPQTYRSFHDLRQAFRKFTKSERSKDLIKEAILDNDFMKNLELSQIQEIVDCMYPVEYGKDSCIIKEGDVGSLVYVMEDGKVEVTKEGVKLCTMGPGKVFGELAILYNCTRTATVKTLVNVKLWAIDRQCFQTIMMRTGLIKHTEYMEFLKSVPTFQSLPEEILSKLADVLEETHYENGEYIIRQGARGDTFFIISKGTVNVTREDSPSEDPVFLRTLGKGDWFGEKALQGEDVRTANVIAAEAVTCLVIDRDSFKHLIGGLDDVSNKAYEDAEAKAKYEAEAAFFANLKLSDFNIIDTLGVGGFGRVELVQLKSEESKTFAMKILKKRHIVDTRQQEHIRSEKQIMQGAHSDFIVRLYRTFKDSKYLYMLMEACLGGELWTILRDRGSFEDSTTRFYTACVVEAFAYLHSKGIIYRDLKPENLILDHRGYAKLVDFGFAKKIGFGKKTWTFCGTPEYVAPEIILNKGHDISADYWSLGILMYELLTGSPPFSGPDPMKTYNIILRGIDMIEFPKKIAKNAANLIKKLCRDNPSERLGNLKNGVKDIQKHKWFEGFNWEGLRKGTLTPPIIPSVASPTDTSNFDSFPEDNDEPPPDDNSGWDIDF
Description: HEK-NPRA cells were transiently transfected with insertless pcDNA3 plasmid vector or pcDNA3-sNRF^(806-1061). All slide wells were treated with atrial natriuretic peptide (ANP) (100 nM; Sigma-Aldrich #A1663) for 15 minutes. Cells were decorated with monoclonal flag antibody specific for FLAG-NPRA (red) and polyclonal PKG antibody (green). Overlapping regions of PKG and NPRA appeared yellow-orange. PKG staining was absent when anti-PKG antibody was pre-adsorbed with recombinant PKG protein (Calbiochem).

PKG [6] = biological target: T2, PKG (Rattus norvegicus, UniProt A9LNM8); assay: Co-immunoprecipitation of PKG with FLAG-tagged NPRA fragments in primary CFs; type: binding; details: 5'-FLAG-tagged fragment in transfected CFs, anti-FLAG M2 affinity gel
T2 construct: endogenous in cells; host or cells: primary neonatal rat cardiac fibroblasts transfected with 5'-FLAG sNRF fragments
T2 sequence (A9LNM8 1-671): T1 sequence (Q13976 1-671) with E227D, T265K, N267S, G291E, K499E, N586S, N656S
Description: Neonatal rat ventricular fibroblasts (CFs) were cultured from 1 to 2-day-old Harlan Sprague-Dawley rats as described previously (Simpson, Circulation Res. 56:884-94, 1985). Briefly, ventricles were dissected free from atria and quartered. Following dissociation in ADS buffer containing 1.5 mg/ml trypsin (Gibco #27250-018) and 1% DNase solution (2 mg/ml DNase type II, 150 mM NaCl) with serum neutralization the collected cells were pre-incubated in media at 37° C. for 90 minutes to allow CF attachment to the bottom of culture dishes. CFs were incubated in plating media for 48 hours, divided into 6-well culture plates or dual-well chamberslides, and grown to 50% confluency in DMEM with 10% FBS prior to use.
CFs were transiently transfected with nucleic acid molecules encoding sNRF^(806-1061), sNRF^(806-900), or sNRF^(806-860) using routine methods. Briefly, PCR-generated, 5′-FLAG epitope-tagged sNRFs were subcloned into the BamHI and EcoRI sites of pCDNA3 (Invitrogen) and sequenced to verify construction accuracy. […]
The ability of the NPRA fragments to immunoprecipitate PKG was determined in the primary CF cells transfected with the 5′-FLAG epitope-tagged NPRA fragments as follows. […] Bound antibody was detected with chemiluminescent substrate (Western Lightning ECL, PerkinElmer Life Sciences).

expression of the luciferase reporter construct driven by TGF-β1 induction of the α-SMA promoter (α-SMA promoter [1]; NP (ANP, 100 nM) 24 hours, 100 nM TGF-β1): almost completely inhibited
Molecule: CC[C@H](C)[C@@H]1NC(=O)[C@H](CCCNC(=N)N)NC(=O)[C@H](CC(=O)O)NC(=O)[C@H](CCSC)NC(=O)[C@H](CCCNC(=N)N)NC(=O)CNC(=O)CNC(=O)[C@H](Cc2ccccc2)NC(=O)[C@@H](NC(=O)[C@H](CO)NC(=O)[C@H](CO)NC(=O)[C@H](CCCNC(=N)N)NC(=O)[C@H](CCCNC(=N)N)NC(=O)[C@H](CC(C)C)NC(=O)[C@@H](N)CO)CSSC[C@@H](C(=O)N[C@@H](CC(N)=O)C(=O)N[C@@H](CO)C(=O)N[C@@H](Cc2ccccc2)C(=O)N[C@@H](CCCNC(=N)N)C(=O)N[C@@H](Cc2ccc(O)cc2)C(=O)O)NC(=O)CNC(=O)[C@H](CC(C)C)NC(=O)CNC(=O)[C@H](CO)NC(=O)[C@H](CCC(N)=O)NC(=O)[C@H](C)NC(=O)CNC1=O [ANP, atrial natriuretic peptide]
NP's inhibitory effect on TGF-β1-induced α-SMA-luciferase (α-SMA promoter [1]; progressively longer periods of NP treatment, up to 4 days): steady decline in NP's inhibitory effects
bFGF-induced α-SMA protein expression [2]: inhibited bFGF-induced α-SMA protein expression
nuclear to cytosolic translocation of vimentin [3]: nuclear to cytosolic translocation of vimentin was observed
TGF-β1-induced α-SMA-luciferase expression (α-SMA promoter [4]; cells that do not over-express sNRF): inhibits TGF-β1-induced α-SMA-luciferase expression

inhibitory effect on sNRF action (loss of NP inhibition of α-SMA-luciferase) (α-SMA promoter [4]): no significant inhibitory effect
Molecule: C[C@H](CS)C(=O)N1CCC[C@H]1C(=O)O [captopril]

inhibitory effect on sNRF action (loss of NP inhibition of α-SMA-luciferase) (α-SMA promoter [4]): no significant inhibitory effect
Molecule: CCCCc1nc(Cl)c(CO)n1Cc1ccc(-c2ccccc2-c2nn[nH]n2)cc1 [losartan]
NP-inhibition of TGF-β1 induction of α-SMA-luciferase (α-SMA promoter [4]; non-sNRF transfected cells): blocks NP-inhibition of TGF-β1 induction of α-SMA-luciferase

co-immunoprecipitation of PKG (PKG [6]): co-immunoprecipitated PKG
Molecule: sNRF^(806-1061): intracellular NPRA fragment, residues 806-1061, with hinge domain and C-terminal guanylyl cyclase domain; expressed FLAG-tagged
translocation of cytosolic PKG to the plasma membrane (PKG [5]): inhibited translocation of cytosolic PKG to the plasma membrane
